Measurements: patent US20230181570A1, “Transdermal Formulation Containing Apomorphine” (MEDRX CO., LTD., priority 2020, published 2023)
Counter-ions that a name gives are not always drawn.

Assay: Study of the solubility of apomorphine hydrochloride in various solvents

CN1CCc2cccc3c2[C@H]1Cc1ccc(O)c(O)c1-3 [apomorphine hydrochloride]
solubility (each used alone: water, 1,3-butanediol, polyethylene glycol, propylene glycol, glycerin, propylene carbonate): ≤ 3 % by weight
apomorphine hydrochloride solution able to be prepared (low molecular weight polyethylene glycol combined with propylene carbonate): 8 % by weight
solubility in propylene carbonate (propylene carbonate used alone): 0.25 % by weight
apomorphine hydrochloride solution able to be prepared (propylene glycol and propylene carbonate, weight of propylene glycol five times or more that of propylene carbonate): 10 % by weight
